Measured values: patent US20140179681A1, “METHODS AND COMPOSITIONS OF TARGETED DRUG DEVELOPMENT” (priority 2010, published 2014)
Read-outs that look alike come from different tables or passages of the source.

What was measured:
[1] = test system: EGF receptor-mediated cell proliferation; experiment: Combination studies (median effect analysis: IC50, CI, DRI) in cell proliferation assay (MTT assay); conditions: for CI @ ED90: Combination Index at 90% inhibition; for DRI @ ED97: Dose Reduction Index
From the text: Studies were initiated to evaluate the ability of various compounds disclosed herein to synergize with several compounds known to inhibit the function of the EGF receptor in a cell proliferation assay (MTT assay).

[2] = test system: epithelial carcinoma A431 cell line; experiment: MTT Cell Proliferation Assay, A431 cells; assay type: cell-based; conditions: for MTT Assay IC50(A431/MDBK): ratio in parentheses: ratio MDBK IC50 / A431 IC50 (selectivity)
Procedure, shortened: (§1)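 Each concentration ran in quadruplicate across duplicate plates, with compounds serially diluted in DMSO and delivered at 0.5% DMSO in 0.5% FBS medium for 3 days.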

EGFR = biological target: T1, EGFR (Homo sapiens, UniProt P00533); experiment: EGFR in-cell Western (ICW) screening protocol (EGFR inhibition assay); assay type: cell-based; parameters: ICW 1 / ICW 2 / ICW Avg: unit not given here; conditions: ICW assay; for ICW Avg: average of runs 1 and 2; for ICW 1: run 1; for ICW 2: run 2
T1 construct: host or cells: A431
T1 sequence (P00533 25-1210): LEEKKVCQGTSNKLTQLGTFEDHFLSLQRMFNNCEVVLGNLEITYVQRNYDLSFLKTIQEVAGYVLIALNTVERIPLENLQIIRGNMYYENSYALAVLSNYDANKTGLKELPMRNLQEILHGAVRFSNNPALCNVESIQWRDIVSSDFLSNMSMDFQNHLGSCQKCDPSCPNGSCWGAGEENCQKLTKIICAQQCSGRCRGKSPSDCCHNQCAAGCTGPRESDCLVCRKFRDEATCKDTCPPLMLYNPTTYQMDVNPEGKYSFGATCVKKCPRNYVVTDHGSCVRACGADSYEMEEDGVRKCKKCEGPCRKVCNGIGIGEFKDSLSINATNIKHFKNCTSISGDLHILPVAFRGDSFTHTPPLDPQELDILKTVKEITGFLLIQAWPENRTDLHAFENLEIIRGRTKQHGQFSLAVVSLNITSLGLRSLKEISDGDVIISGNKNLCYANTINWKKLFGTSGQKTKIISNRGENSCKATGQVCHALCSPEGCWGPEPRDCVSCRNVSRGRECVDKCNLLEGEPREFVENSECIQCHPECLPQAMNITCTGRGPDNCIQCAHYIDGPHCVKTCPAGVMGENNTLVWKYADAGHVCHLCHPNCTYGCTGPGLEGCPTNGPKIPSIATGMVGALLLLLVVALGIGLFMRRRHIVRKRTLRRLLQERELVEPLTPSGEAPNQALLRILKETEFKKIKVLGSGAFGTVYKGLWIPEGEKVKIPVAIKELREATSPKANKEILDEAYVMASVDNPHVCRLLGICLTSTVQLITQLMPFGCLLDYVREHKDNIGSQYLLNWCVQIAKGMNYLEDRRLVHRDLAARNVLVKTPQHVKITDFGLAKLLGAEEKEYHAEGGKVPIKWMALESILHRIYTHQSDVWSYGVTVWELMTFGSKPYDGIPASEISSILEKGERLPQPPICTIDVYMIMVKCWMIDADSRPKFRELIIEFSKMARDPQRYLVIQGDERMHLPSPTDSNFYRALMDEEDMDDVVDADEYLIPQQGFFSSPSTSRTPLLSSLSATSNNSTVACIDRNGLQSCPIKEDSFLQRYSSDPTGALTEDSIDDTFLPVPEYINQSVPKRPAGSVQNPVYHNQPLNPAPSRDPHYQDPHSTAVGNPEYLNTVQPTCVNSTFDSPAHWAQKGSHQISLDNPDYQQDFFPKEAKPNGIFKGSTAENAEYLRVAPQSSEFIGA
Procedure, shortened: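 In-cell Western read-out: fixed A431 cells were co-stained for total EGFR and phospho-EGFR (Tyr1173; some runs Tyr1045). Before fixation, cells were serum-starved for 2 h, exposed to compound for 4 h, then given EGF for 10 min, usually at 10 ng/ml final (6.6 or 12.5 ng/ml in some runs).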

MDBK line = experiment: MTT Cell Proliferation Assay, MDBK cells; assay type: cell-based, bovine; conditions: MDBK cells
Procedure, shortened: as §1

[3] = Homo sapiens, A-431, A431 cells, first value of cell, read-out: MTT Assay IC50(A431/MDBK): A431
[4] = Bos taurus, MDBK, second value of cell, read-out: MTT Assay IC50(A431/MDBK): MDBK
[5] = A431 cells, first value of cell, read-out: MTT Assay IC50(A431/MDBK): A431
[6] = second value of cell, read-out: MTT Assay IC50(A431/MDBK): MDBK

IC50 [2, 3] [µM]	MTT Assay IC50(A431/MDBK): ratio in parentheses [2]	ICW Avg (EGFR)	ICW 1 (EGFR)	ICW 2 (EGFR)	MTT Assay IC50(A431/MDBK): A431 ([2]; A431 cells, first value of cell)	IC50 ([2]; Homo sapiens, A-431, follow-up MTT, A431 cells, first value, read-out: MTT Follow-up: A431) [µM]	IC50 [2, 5] [µM]	Compound	CI @ ED90 ([1]; combination with Iressa)	CI @ ED90 ([1]; combination with Tykerb)	DRI @ ED97 ([1]; effect of the test compound on Iressa)	DRI @ ED97 ([1]; effect of the test compound on Tykerb)	IC50 (MDBK line; [4]) [µM]	MTT Follow-up: ratio in parentheses ([2]; follow-up MTT, ratio MDBK/A431)	IC50 (MDBK line; Bos taurus, MDBK, follow-up MTT, second value, read-out: MTT Follow-up: MDBK) [µM]	IC50 (MDBK line; [6]) [µM]
		37.09	40.96	33.21	non-convergent	14.1		CCOc1cccc2c(C)nc(Nc3nc(CSc4ccc(C)cc4)cc(=O)[nH]3)nc12 [compound 11755]						0.23	3.24	
53.8		47.78	53.63	41.93				COc1cccc2c(C)nc(Nc3nc(C(F)(F)F)cc(=O)[nH]3)nc12 [compound 11758]					576			
5.36	2.53	30.56	28.62	32.50				Cc1nc(Nc2nc(CCC(C)C)cc(=O)[nH]2)nc2ccccc12 [compound 11792]					13.6			
	0.65	52.18	47.72	56.65			17.6	CCc1c(C)nc(Nc2nc(C)c3cccc(OC)c3n2)[nH]c1=O [compound 12613]								11.5
5.12	1.16	29.24	31.59	26.88				COc1cccc2c(C)nc(Nc3nc(C)c(C)c(=O)[nH]3)nc12 [compound 12615]					5.93			
	1.03	33.01	32.26	33.77			5.17	COc1cccc2c(C)nc(Nc3nc(-c4ccc(F)cc4)cc(=O)[nH]3)nc12 [compound 12620]								5.3
10.7	0.79	40.69	29.69	51.69				CCCc1cc(=O)[nH]c(Nc2nc(C)c3ccc(C)cc3n2)n1 [compound 12674]					8.41			
14.7	0.43	42.27	38.90	45.65				C=CCc1c(C)nc(Nc2nc(C)c3cccc(OCC)c3n2)[nH]c1=O [compound 12737]					6.33			
	0.97	49.20	33.49	64.92			19.6	CCCc1c(C)nc(Nc2nc(C)c3cccc(C)c3n2)[nH]c1=O [compound 12742]								18.9
17.9	0.67	32.65	18.02	47.28				C=CCc1c(C)nc(Nc2nc(C)c3cccc(OC)c3n2)[nH]c1=O [compound 12746]					11.9			
12.8	0.70	30.77	24.37	37.17				Cc1nc(Nc2nc(C(C)C)cc(=O)[nH]2)nc2c(C)cccc12 [compound 12777]					8.96			
4.66	1.15	37.56	31.05	44.08				COc1cccc2c(C)nc(Nc3nc(-c4ccc(F)cc4)cc(=O)[nH]3)nc12 [compound 12778]					5.34			

The next lines start with the molecule.

Compound	IC50 [2, 3] [µM]	MTT Assay IC50(A431/MDBK): ratio in parentheses [2]	ICW Avg (EGFR)	ICW 1 (EGFR)	ICW 2 (EGFR)	MTT Assay IC50(A431/MDBK): A431 ([2]; A431 cells, first value of cell)	IC50 ([2]; Homo sapiens, A-431, follow-up MTT, A431 cells, first value, read-out: MTT Follow-up: A431) [µM]	IC50 [2, 5] [µM]	CI @ ED90 ([1]; combination with Iressa)	CI @ ED90 ([1]; combination with Tykerb)	DRI @ ED97 ([1]; effect of the test compound on Iressa)	DRI @ ED97 ([1]; effect of the test compound on Tykerb)	IC50 (MDBK line; [4]) [µM]	MTT Follow-up: ratio in parentheses ([2]; follow-up MTT, ratio MDBK/A431)	IC50 (MDBK line; Bos taurus, MDBK, follow-up MTT, second value, read-out: MTT Follow-up: MDBK) [µM]	IC50 (MDBK line; [6]) [µM]
Cc1cccc(NC(c2ccc(C(F)(F)F)cc2)c2ccc3cccnc3c2O)n1 (stereo not shown) [AD4-10628]									0.91	0.55	105	126				
Cc1ccc2nc(Nc3nc(CSc4ncccn4)cc(=O)[nH]3)nc(C)c2c1 [compound 11751]	9.88	0.64	25.51	25.87	25.14								6.31			
Cc1ccc2c(C)nc(Nc3nc4c(c(-c5ccccc5)n3)CCCC4)nc2c1 [compound 11777]	6.6	1.62	25.87	37.92	13.81								10.7			
CCOC(=O)c1c(N)nc(Nc2nc(C)c3cc(C)ccc3n2)nc1-c1ccccc1 [compound 11812]	14.7		56.84	51.90	61.77								31.6			
CCOC(=O)c1c(N)nc(Nc2nc(C)c3cc(C)c(C)cc3n2)nc1-c1ccccc1 [compound 11825]	4.06		54.02	52.17	55.87								17.9			
Cc1cc(C)nc(Nc2nc(N)c3ccccc3n2)n1 [compound 11829]	19.6		65.68	62.56	68.79								16.2			
CCc1ccc2nc(Nc3nc(C)c4c(n3)CCCC4)nc(C)c2c1 [compound 12213]	39.1	0.99	28.01	28.35	27.66								38.6			
Cc1ccc2nc(Nc3nc4c(c(-c5ccccc5)n3)CCCC4)nc(C)c2c1 [compound 12227]	16.4	1.04	27.27	31.47	23.08								17.1			
CCCc1c(-c2ccccc2)nc(Nc2nc(C)c3ccccc3n2)[nH]c1=O [compound 12609]	11.2	2.10	41.04	42.02	40.07								23.5			
CCCc1c[nH]c(Nc2nc(C)c3ccccc3n2)nc1=O [compound 12622]	20.8	0.55	26.32	21.30	31.34								11.5			
Cc1cc(C)nc(Nc2nc(-c3ccccc3)c3ccc(Cl)cc3n2)n1 [compound 12636]		2.18	49.02	49.55	48.49			15.9								34.6
CCCc1cc(=O)[nH]c(Nc2nc(C)c3ccc(C)cc3n2)n1 [compound 12655]		0.68	31.68	30.00	33.36			11.6								7.89
CCCc1c(C)[nH]c(Nc2nc(C)c3cc(C)ccc3n2)nc1=O [compound 12661]	43.1	0.89	35.24	29.34	41.14								38.2			
CCCc1c(C)nc(Nc2nc(C)c3cc(C)ccc3n2)[nH]c1=O [compound 12667]	36.1	0.54	31.86	29.45	34.27								19.6			
COc1ccc2c(C)nc(Nc3nc(C)cc(-c4ccccc4)n3)nc2c1 [compound 12676]	12.9	1.45	25.81	28.01	23.61								18.8			
CCOC(=O)c1c(N)nc(Nc2nc(C)c3cc(OC)ccc3n2)nc1-c1ccccc1 [compound 12679]	15.1	2.78	70.50	73.98	67.01								42			
CCOC(=O)c1c(N)nc(Nc2nc(C)c3cc(C)ccc3n2)nc1-c1ccccc1 [compound 12681]		1.63	89.48	89.93	89.02			15.6								25.4
CCCc1c(-c2ccccc2)nc(Nc2nc(C)c3ccccc3n2)[nH]c1=O [compound 12732]		1.35	82.77	79.12	86.41			11.1								15
CCCc1c(C)nc(Nc2nc(C)c3cc(C)cc(C)c3n2)[nH]c1=O [compound 12736]		1.38	43.43	32.35	54.51			7.14								9.82
C=CCc1c(C)nc(Nc2nc(C)c3cc(CC)ccc3n2)[nH]c1=O [compound 12739]	15.9	0.58	34.03	28.51	39.54								9.17			
